Tests used:
[1] = target: T1, recombinant GC (Cerezyme) (Homo sapiens, UniProt P04062, R534H); assay: recombinant GC activity assay; assay type: biochemical; conditions: tenfold molar excess of peptide, acid pH, relative to buffer control
T1 construct: purchased Genzyme Therapeutics, Boston, USA
T1 sequence (P04062 40-536 R534H): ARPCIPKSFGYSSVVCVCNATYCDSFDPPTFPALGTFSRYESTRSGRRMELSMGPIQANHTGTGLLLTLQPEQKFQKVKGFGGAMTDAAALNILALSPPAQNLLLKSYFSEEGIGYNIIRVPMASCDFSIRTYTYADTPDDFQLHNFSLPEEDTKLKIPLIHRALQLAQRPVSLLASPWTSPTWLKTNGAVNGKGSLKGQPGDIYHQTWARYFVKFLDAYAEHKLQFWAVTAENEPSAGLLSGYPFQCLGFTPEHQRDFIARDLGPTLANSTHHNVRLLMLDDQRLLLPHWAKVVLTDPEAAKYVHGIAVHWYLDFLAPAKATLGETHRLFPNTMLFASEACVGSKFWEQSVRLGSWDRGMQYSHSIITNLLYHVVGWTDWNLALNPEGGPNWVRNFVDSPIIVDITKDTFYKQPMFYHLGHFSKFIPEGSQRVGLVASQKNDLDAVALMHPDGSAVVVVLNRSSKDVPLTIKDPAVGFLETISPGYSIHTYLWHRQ
Experimental: (§1) Expression plasmids of LIMP-2 and human GC constructs were generated as described previously (1). For Western blotting nitrocellulose or PVDF membranes were used. EndoH/PNGaseF digests were performed according to manufacturer's instructions (New England Biolabs, Ipswich, USA). For co-immunoprecipitation experiments magnetic agarose G beads (Thermo Fisher Scientific, Waltham, USA) were utilized. Immunofluorescence studies were performed in cells as previously described (1, 3). Cellular co-localization of two proteins was determined by the Pearson's Index (35). Enzyme activity assays of cell lysates or recombinant protein were measured at acid pH using absorbent and fluorescent artificial substrates. For peptide studies, peptides were N-terminally tagged with biotin. If not stated otherwise, recombinant enzyme was incubated with a tenfold higher molarity of peptides. Conditions for pulldown experiments were kept at neutral pH. Protein modelling, molecular analyses, graphics and animations were performed with the UCSF Chimera package.
To determine the enzymatic activity of the recombinant enzymes, lyophilized enzymes were reconstituted in the NaPi buffer described above. The lyophilized samples of wild-type GC (Cerezyme®) and the custom-made recombinant N307S mutant enzyme contain 0.01% polysorbate 80 (Tween 80) (see prescription information for Cerezyme® at the website for Cerezyme®). As indicated in our experiments, the concentration of the detergent is sufficient to support active GC enzyme and to perform the in vitro GC activity assays without adding further detergents to the reaction mix. For enzyme activity assays of recombinant proteins, 0.1-0.2 nmol of GC (Cerezyme®; N370S) and LAMAN were used in the absence or presence of 10× the molar amount of LIMP-2-derived peptides (Table 1) or LIMP-2 ectodomain (1-2 nmol) (Table 3).
All activity assays were performed at acid pH.

[2] = target: T1, recombinant GC (Cerezyme); assay: peptide pulldown of recombinant GC; assay type: binding; conditions: biotinylated peptide, tenfold molar amount, neutral pH, streptavidin beads
Experimental: as §1
All peptides were purchased from jpt Peptide Technologies (Berlin, GER). […] The concentration of the peptides as well as the recombinant proteins was determined spectroscopically (Nanodrop 2000c; Thermo Fisher Scientific, Waltham, USA). […]

Substance | increase of recombinant GC enzyme activity [1] | increase of recombinant GC enzyme activity ([1]; listed as LIMP-2-derived helix 5 peptide) | co-precipitation of recombinant GC [2]
Biotin-Ttds-KFERQLREIIEAMLKAYQQKLFVTHTVDEYGRKKRRQRRR [helix 5 TAT-peptide] | comparable effect | – | –
Biotin-Ttds-LREIIEAMLKAYQQKLFVTHTVDE [helix 5 peptide] | five times | five-fold increase | specifically co-precipitated

— patent US10286038B2, “Lysosome membrane protein 2 (LIMP-2) based peptides and related uses” (Northwestern University, priority 2016, dated 2019)
